Each structure is given as a SMILES string.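 Assay format: 96-well plates, 48-hour exposure. The concentration for 50% growth inhibition is given as GI50.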 The source made the active and inactive calls. Rule as the data show it: active = GI50 up to about 1.1 µM and inactive = higher.

This note sets out measurements from ChEMBL document CHEMBL1201862, “PubChem BioAssay data set” (2004).

Test systems include HCC 2998; HCT-116; SF-268; NCI-H23; OVCAR-8; A549; SK-MEL-5; HOP-62; Malme-3M; MOLT-4; LXFL 529; NCI-H460; KM12; COLO 205; SK-MEL-28; U-251; HCT-15; SN12C; MCF7; BT-549.
Common to all, as to assay: growth of human tumour cells (NCI), 48 h

Turning to `CC(c1cccc2ccccc12)/[N+]([O-])=C/c1ccccc1` (stereo unspecified), the GI50 in the assay on HCC 2998, with HCT-116, in the assay on SF-268, in the assay with NCI-H23, with OVCAR-8 and in the assay with A549 was > 100 µM (inactive) in each case. The GI50 in the assay on SK-MEL-5, in the assay on HOP-62, with Malme-3M, with MOLT-4, in the assay with LXFL 529 and in the assay with NCI-H460 was > 100 µM (inactive) in each case. Further, the GI50 in the assay on KM12, with COLO 205, with SK-MEL-28 and with U-251 was > 100 µM (inactive) throughout.

For `CCOC(=O)/C(=C/c1ccc(C#N)cc1)N(CC)CC`, the GI50 with HCT-15 is over 100 µM; in the assay on HCC 2998, > 100 µM (inactive); in the assay on HCT-116 it was > 100 µM (inactive); in the assay on SF-268, > 100 µM (inactive); in the assay with NCI-H23, > 100 µM (inactive); with OVCAR-8, > 100 µM (inactive). The GI50 in the assay with A549, with SK-MEL-5, in the assay on HOP-62, in the assay with Malme-3M, in the assay with MOLT-4 and in the assay on LXFL 529 was > 100 µM (inactive) in each case. Further, the GI50 in the assay on NCI-H460, with KM12, in the assay with COLO 205, with SK-MEL-28, in the assay with SN12C and in the assay with U-251 was > 100 µM (inactive) throughout.

Consider `CCCc1ccc(/N=C\c2cc(OC)c(OC)c(OC)c2)cc1`, for which the GI50 with HCT-15 is over 39.9 µM; in the assay with HCT-116, > 63.4 µM (inactive); in the assay on SF-268, > 100 µM (inactive); in the assay with NCI-H23 it was > 100 µM (inactive); with OVCAR-8 it was > 100 µM (inactive); in the assay on A549, > 100 µM (inactive). The GI50 was > 100 µM (inactive) in the assay with SK-MEL-5; > 100 µM (inactive) with HOP-62; > 100 µM (inactive) in the assay on Malme-3M; > 100 µM (inactive) in the assay on MOLT-4; 99.3 µM (inactive) with LXFL 529; > 100 µM (inactive) in the assay on NCI-H460. Further, the GI50 is > 100 µM (inactive) in the assay on KM12; > 31.6 µM (inactive) with COLO 205; > 100 µM (inactive) in the assay with SK-MEL-28; > 100 µM (inactive) in the assay with SN12C; > 100 µM (inactive) in the assay with U-251.

Consider `COc1ccc2nc(NC(=O)C(=O)C(C#N)c3ccc(Cl)c(Cl)c3)sc2c1` (stereo unspecified), for which the GI50 was over 100 µM with HCT-15; 62.4 µM (inactive) in the assay on HCT-116; 79.8 µM (inactive) in the assay with SF-268; 75.9 µM (inactive) with NCI-H23; > 100 µM (inactive) in the assay with OVCAR-8; > 100 µM (inactive) in the assay on A549. In addition, the GI50 is > 100 µM (inactive) in the assay on SK-MEL-5; > 100 µM (inactive) with HOP-62; > 100 µM (inactive) in the assay on Malme-3M; > 100 µM (inactive) with LXFL 529; 84.7 µM (inactive) in the assay with NCI-H460; > 100 µM (inactive) in the assay on KM12. Besides, the GI50 in the assay on COLO 205, with SK-MEL-28, in the assay with SN12C and with U-251 was > 100 µM (inactive) throughout.

Turning to `Cc1cc(Cl)ccc1NC(=O)C(=O)C(C(=O)c1ccccc1)C1OC(=O)c2ccccc21` (stereo unspecified), the GI50 was over 100 µM in the assay with HCT-15; > 100 µM (inactive) with HCC 2998; > 100 µM (inactive) with HCT-116; > 100 µM (inactive) with SF-268; > 100 µM (inactive) in the assay with NCI-H23; > 100 µM (inactive) with OVCAR-8. In addition, the GI50 in the assay on A549, with SK-MEL-5, in the assay on HOP-62, in the assay with Malme-3M, in the assay on MOLT-4 and in the assay with LXFL 529 was > 100 µM (inactive) each time. For the same compound, the GI50 in the assay with NCI-H460, in the assay with KM12, with COLO 205, with SK-MEL-28, in the assay on SN12C and in the assay on U-251 was > 100 µM (inactive) each time.

For the compound `CC1=C(C(=O)Nc2ccccc2)C(c2ccc(Cl)c(Cl)c2)C(C(=O)Nc2ccccc2)=C(C)N1`, the GI50 in the assay on HCT-15 is 10.9 µM; with HCT-116, 10.4 µM (inactive); in the assay on SF-268 it was 12 µM (inactive); with NCI-H23, 12.5 µM (inactive); in the assay on OVCAR-8 it was 13.7 µM (inactive); in the assay on A549, 7.48 µM (inactive). Besides, the GI50 with SK-MEL-5 is 14 µM (inactive); in the assay with HOP-62 it was 14.5 µM (inactive); in the assay on Malme-3M, 12.7 µM (inactive); in the assay on MOLT-4, 0.512 µM (active); in the assay on LXFL 529, 12.9 µM (inactive); with NCI-H460, 13 µM (inactive). Further, the GI50 with KM12 is 13 µM (inactive); in the assay on COLO 205, 15.4 µM (inactive); with SK-MEL-28 it was 12.8 µM (inactive); with SN12C it was 14.9 µM (inactive); with U-251, 14.5 µM (inactive).

Take `N#C/C(=C\c1ccc(O)cc1O)C(N)=O`: the GI50 in the assay with HCT-15 was over 100 µM; in the assay on HCC 2998 it was > 100 µM (inactive); in the assay on HCT-116, 94.2 µM (inactive); in the assay on SF-268 it was > 100 µM (inactive); in the assay on NCI-H23, 58.1 µM (inactive); with OVCAR-8, > 100 µM (inactive). For the same compound, the GI50 with A549 is > 100 µM (inactive); in the assay with HOP-62 it was > 100 µM (inactive); in the assay with Malme-3M, 90.8 µM (inactive); with MOLT-4, 58.6 µM (inactive); in the assay on LXFL 529 it was > 100 µM (inactive); in the assay on NCI-H460 it was > 100 µM (inactive). The GI50 is > 100 µM (inactive) with KM12; 12.9 µM (inactive) in the assay with COLO 205; 93.3 µM (inactive) with SK-MEL-28; > 100 µM (inactive) in the assay with SN12C; > 100 µM (inactive) in the assay on U-251.

On to `COC(=O)/C=C/C1C(C(=O)OC)C2(C(=O)OC)CCC1(C(=O)OC)N2` (stereo unspecified), for which the GI50 in the assay on HCT-15 was over 100 µM; in the assay with HCC 2998 it was > 100 µM (inactive); in the assay with HCT-116, > 100 µM (inactive); with SF-268 it was > 100 µM (inactive); in the assay on NCI-H23, > 100 µM (inactive); with OVCAR-8 it was > 100 µM (inactive). Further, the GI50 with A549, with SK-MEL-5, in the assay on HOP-62, with Malme-3M, in the assay with MOLT-4 and with LXFL 529 was > 100 µM (inactive) in each case. For the same compound, the GI50 in the assay with NCI-H460, in the assay with KM12, in the assay with COLO 205, in the assay with SN12C and with U-251 was > 100 µM (inactive) throughout.

With `O=C(/N=N/C(=O)OCc1ccccc1)OCc1ccccc1`, the GI50 is 94.2 µM in the assay with HCT-15; > 100 µM (inactive) in the assay on HCC 2998; > 100 µM (inactive) with HCT-116; 96.4 µM (inactive) in the assay with SF-268; 99.8 µM (inactive) in the assay with NCI-H23; > 100 µM (inactive) in the assay on OVCAR-8. Also, the GI50 is 81.3 µM (inactive) with A549; > 100 µM (inactive) with SK-MEL-5; > 100 µM (inactive) with HOP-62; > 100 µM (inactive) in the assay on Malme-3M; 31.9 µM (inactive) in the assay on MOLT-4; 68.2 µM (inactive) in the assay on LXFL 529. The GI50 in the assay with NCI-H460 was > 100 µM (inactive); in the assay on KM12, 88.3 µM (inactive); in the assay on COLO 205, > 100 µM (inactive); in the assay on SN12C it was > 100 µM (inactive); in the assay on U-251, 83.8 µM (inactive).

As to `CCCCCCCCNC(=O)SCCCC`, the GI50 in the assay on HCT-15 is 27.9 µM; with SF-268 it was 34.9 µM (inactive); in the assay with NCI-H23 it was 38.5 µM (inactive); in the assay on OVCAR-8 it was 33.8 µM (inactive); in the assay on A549, 33.9 µM (inactive); in the assay on SK-MEL-5 it was 21.3 µM (inactive). Besides, the GI50 was 23.1 µM (inactive) with Malme-3M; 22.5 µM (inactive) with MOLT-4; 38.5 µM (inactive) in the assay on LXFL 529; 28.4 µM (inactive) with NCI-H460; 55 µM (inactive) in the assay with KM12; 45.2 µM (inactive) with COLO 205. For the same compound, the figures for the GI50 in the assay on SK-MEL-28, with SN12C and in the assay with U-251 were 38.2 µM (inactive), 37.8 µM (inactive) and 36.9 µM (inactive), respectively.

`Cc1ccc(-c2n[nH]c(=O)n2/N=C\c2ccccc2O)cc1`: the GI50 in the assay on HCT-15 is over 100 µM; with HCC 2998 it was > 100 µM (inactive); in the assay on HCT-116, > 100 µM (inactive); in the assay on SF-268 it was > 100 µM (inactive); in the assay on MCF7 it was 55.6 µM (inactive); in the assay with NCI-H23, > 100 µM (inactive). In addition, the GI50 in the assay on OVCAR-8, in the assay on A549, with SK-MEL-5, in the assay with HOP-62, in the assay on Malme-3M and in the assay with MOLT-4 was > 100 µM (inactive) in each case. For the same compound, the GI50 with NCI-H460, with KM12, in the assay with COLO 205, in the assay with BT-549, with SK-MEL-28 and in the assay with SN12C was > 100 µM (inactive) throughout. For the same compound, the GI50 in the assay with U-251 is > 100 µM (inactive).

Consider `CCOC(=O)c1c(C)noc1/N=N/N(CCO)CCO`, for which the GI50 was 41.5 µM with HCT-15; 22.3 µM (inactive) in the assay on HCC 2998; 28.7 µM (inactive) in the assay with HCT-116; 54.3 µM (inactive) with SF-268; 29.1 µM (inactive) in the assay on MCF7; 30.3 µM (inactive) in the assay with NCI-H23. The GI50 with OVCAR-8 was 38.3 µM (inactive); in the assay on A549 it was 36.8 µM (inactive); in the assay on SK-MEL-5 it was 15.7 µM (inactive); in the assay with HOP-62, 32.6 µM (inactive); in the assay with Malme-3M, 45.1 µM (inactive); in the assay with MOLT-4 it was 21 µM (inactive). Further, the GI50 is 27.9 µM (inactive) in the assay on NCI-H460; 36.6 µM (inactive) in the assay on KM12; 23.1 µM (inactive) with COLO 205; 35.9 µM (inactive) in the assay with BT-549; 49.1 µM (inactive) in the assay with SK-MEL-28; 37.5 µM (inactive) in the assay with SN12C. In addition, the GI50 with U-251 was 28.4 µM (inactive).
